# Values of other authors, collected in paper PMC8227856, “Antibacterial Activity of a Promising Antibacterial Agent: 22-(4-(2-(4-Nitrophenyl-piperazin-1-yl)-acetyl)-piperazin-1-yl)-22-deoxypleuromutilin” (Molecules, 2021).
# Design: method as in PMID 25812151
# Settings: mice, oral acute toxicity; cited from earlier work
structure (smiles),measurement,value
"C=C[C@]1(C)C[C@@H](OC(=O)CSc2nnc(N)s2)[C@]2(C)[C@H](C)CC[C@]3(CCC(=O)[C@H]32)[C@@H](C)[C@@H]1O [ATTM, 14-O-[(2-Amino-1,3,4-thiadiazol-5-yl)Thioacetyl] Mutilin]",LD50,2304.4 mg/kg
